The results in this text go back to patent US5244916A, “Inhibition of respiratory burst using posttranslational modification inhibitors” (The Scripps Research Institute, priority 1992, dated 1993).

“Also recorded” adds a separate entry of the source.

What all share (assay type): cell-based
Test [1] relates to HL-60 cells (NADPH oxidase / respiratory burst). Kind of test: O2- formation by DMSO-differentiated HL-60 cells, PMA-stimulated. The following applies: various concentrations. Here is the method: HL-60 cells were maintained in stationary culture in RPMI 1640 medium (Gibco, Grand Island, NY) containing 10% fetal bovine serum at 37° C in an atmosphere of 95 air and 5% CO2. The cells (about 8×10^5 /ml) were differentiated into neutrophil-like cells by treatment with 1.3% DMSO for six days (Harris, et al., J. Leukocyte Biol. 37: 407-422 (1985)). The cells were treated with the indicated levels of compactin or lovastatin by addition of a 1,000-fold concentrated stock solution to the appropriate concentration on day 4 of differentiation. […] In studies of the protective effect of mevalonic acid, the compound was added as the mevalonolactone (Sigma Chemical Co., St. Louis, MO) at a concentration of 1 mM to the cell culture on days 4 to 6. […]
O2 --formation by HL-60 cells was assessed by the SOD-sensitive reduction of cytochrome c. […] Cytochrome c reduction at 550nm was continuously monitored and maximal rate and extent of the reaction calculated.

Test [2] concerns CD14 antigen. As to the kind of experiment: HL-60 differentiation: CD14 antigen expression (flow cytometry). The settings on record: compactin-treated cells. Here is the method:
HL-60 cells were maintained in stationary culture in RPMI 1640 medium (Gibco, Grand Island, NY) containing 10% fetal bovine serum at 37° C in an atmosphere of 95 air and 5% CO2. The cells (about 8×10^5 /ml) were differentiated into neutrophil-like cells by treatment with 1.3% DMSO for six days (Harris, et al., J. Leukocyte Biol. 37: 407-422 (1985)). The cells were treated with the indicated levels of compactin or lovastatin by addition of a 1,000-fold concentrated stock solution to the appropriate concentration on day 4 of differentiation. […]
Cell viability was determined by uptake of propidium iodide (537-059; Calbiochem-Behring Corp., La Jolla, CA), detected from the emission fluorescence at 625/35 nm using a DM560 dichronic mirror (Krishan, J. Cell. Biol. 66: 188-192 (1975)). Expression of N-formyl peptide receptor was determined using fluorescein-labeled N-CHONle-Leu-Phe-Nle-Tyr-Lys (Molecular Probes, Inc., Eugene, OR) essentially by the method of Sklar and Finney (Sklar and Finney, Cytometry 3: 161-165 (1982)). Specificity of ligand binding was determined in the presence of 4 mM unlabeled T-boc peptide. […]
HL-60 differentiation was assessed using two distinct markers: appearance of N-formyl peptide receptors and appearance of the CD14 antigen.
A general note: In flow cytometry, cells or beads pass a laser one at a time.

The test system of test [3] is Rap1. Kind of test: Metabolic labeling and immune precipitation of processed and unprocessed Rap1 in HL-60 cells. The settings on record: various concentrations. Here is the method:
Analysis of Rapl processing in HL-60 cells was performed by labeling cells (8×10^5 /ml) with 200μCi/ml ^35 S-Trans-label (ICN Biomedicals, Inc., Costa Mesa, CA) for 5 days during cell differentiation with 1.3% DMSO in Cys-Met-free medium containing 12% dialyzed fetal bovine serum. Various concentrations of compactin were included as indicated. Metabolically labeled cells were collected, washed once with isotonic NaCl, treated with 2.5 mM Hepes pH 7.5, 100 mM NaCl, 1 mM EDTA, 1 % Triton X-100, 2.5 μM PMSF, and 100U aprotonin. After a 15-minute incubation on ice, the cell lysates were pelleted in a microfuge for 2 minutes and then the supernatant was transferred to clean tubes containing 100 μl 4M NaCl, 5 μl 10% SDS, and 50 μl10% deoxycholate. The samples were boiled for two minutes, pelleted, and transferred to clean tubes containing 2 μl of the primary antibody, 142-24E05 (Chesa, et al., PNAS USA 84: 3234-3238 (1987); Bokoch, et al., J. Biol. Chem. 263: 16744-16749 (1988)). […]
In untreated cells, Rapl was present largely in the membrane fraction, with very little Rapl in the cytosol. […] Isoprenylation of Rapl was also assessed by metabolic labeling of the HL-60 cells with immune precipitation of Rap1, and analysis of the 22kD processed and 23kD unprocessed forms of Rap1 (Buss, et al., Mol. Cell, Biol. 11: 1523-1527 (1991)).

For the compound `CC[C@H](C)C(=O)O[C@H]1CCC=C2C=C[C@H](C)[C@H](CC[C@@H]3C[C@@H](O)CC(=O)O3)[C@H]21` [compactin], the “inhibition of O2- formation in response to PMA” value in test [1] is on record as “loss in the ability of PMA to stimulate O2 --formation; also recorded: dose-dependent inhibition”. Further, the CD14 expression result in test [2] is on record as “normal”. In test [3], the “22 kD processed form of Rap1” value is “dose-dependent decrease” and the “23 kD unprocessed form of Rap1” value was “proportional increase”.
